Experiments:
[1] = tested on: JAK2(JH1domain-catalytic)
[2] = tested on: RSK2 (Kin.Dom.1-N-terminal)
PBMCs = experiment: Cytokine release from PHA-stimulated PBMCs; type: cell-based, human; conditions: for production of pro-inflammatory cytokines IL-8, IL-1β, IL-6, IL-10, and TNF-α: 1, 2.5, and 5 μM, 18 h
Protocol: Human PBMCs from healthy donors were isolated from heparinized blood by density gradient centrifugation with Ficoll-Paque. The isolated cells were washed twice with PBS, resuspended in RPMI 1640 medium (Sigma-Aldrich, St. Louis, MO, USA) supplemented with 10% heat-inactivated fetal bovine serum (Gibco), 2 mM L-glutamine (Sigma-Aldrich), 100 U/mL penicillin (Sigma-Aldrich), and 100 μg/mL streptomycin (Sigma-Aldrich), and used in the assays.
Peripheral blood mononuclear cells were seeded (500,000 cells/well) in 24-well plates in 500 μL of growth medium and treated with compounds 94, 95, and neflamapimod (1, 2.5, and 5 μM) in the presence or absence of PHA (1 μg/mL) or the corresponding vehicle (0.1% DMSO). Cell-free supernatants were collected after 18 h of incubation (37 °C, 5% CO2) and stored at −80 °C until tested. Cytokine production was determined with BD Cytometric Bead Array human inflammatory cytokines kit (BD Bioscience) on an Attune NxT flow cytometer (Thermo Fisher Scientific, Waltham, MA, USA). Standard curves were generated using recombinant cytokines contained in the kit. The data were analyzed using the FlowJo (Tree Star, Inc., Ashland, OR, USA) and Prism (GraphPad Prism 6.0, GraphPad Software) software.

[3] = tested on: scopolamine-induced cognitive deficits in mice; experiment: Novel object recognition task, scopolamine-induced amnesia; type: in vivo; conditions: for efficacy in NOR task: 5 mg/kg i.p., scopolamine model; for preference for the novel object (NOR task): 10 mg/kg i.p., vs mice treated with scopolamine alone
Text: In the scopolamine model, the PA and NOR tasks were used for dose selection for further testing.
The mice had unlimited access to food and water prior to the experiment. Specified conditions for the maintenance of mice were ensured throughout the experiment, including tree bedding (Transwior, Poland) and cage enrichment (tunnels, nesting material, wooden igloos, etc.). For behavioral tests, the mice were selected randomly; each group consisted of 7–10 mice. […] The procedures for maintenance and treatment of laboratory animals were approved by the first Local Ethics Committee in Krakow (Approval No. 645/2022, 760/2023, and 829/2024 and the treatment of animals was in full accordance with ethical standards laid down in respective Polish and EU regulations (Directive 2010/63/EU).
Scopolamine hydrobromide (Sigma-Aldrich, Poland) at the dose of 1 mg/kg was used to induce learning and memory deficits. For the in vivo tests, scopolamine was prepared in distilled water (Polfa Kutno, Poland) and was administered subcutaneously (s.c.) 30 min before behavioral tests during the acquisition (training) trial of PA and NOR tasks. […] They were administered intraperitoneally (i.p.) 60 min before the acquisition trial of the PA, NOR, and MWM tasks.
The experiment was conducted in opaque black boxes with dimensions of 50 × 50 × 50 cm. The 3 day procedure consists of habituation to the test arena (without any objects) for 10 min on the first day (T0), a training trial (T1), and a testing trial (T2) separated by a 24 h intertrial interval. During T1 (familiarization trial), two identical objects (A and B) were presented in the opposite corners of the arena, approximately 5 cm from its walls. During T2 (recognition trial), one of the objects (B) was replaced by a novel object (C), so that the animals were presented with A (familiar) and C (novel) objects. Both T1 and T2 trials lasted for 10 min, and after each trial, the animals returned to their home cages. White plastic round containers (height 5 cm, diameter 5 cm) attached to the ground with double-sided tape were used as the A, B objects, and green cuboids of similar height were used as object C. The objects were stable enough so that the animals could not displace them. The sequence of presentations and the location of the objects were randomly assigned to each mouse. The animals explored the objects by looking, licking, sniffing, or touching them while sniffing, but not when leaning against, standing, or sitting on the objects. Any mouse exploring the two objects for less than 5 s within the 10 min duration of T1 or T2 was eliminated from the study. An experimenter, blind to the drug treatment, measured the exploration time of the objects.

[4] = tested on: TLR4, COX-2, NLRP3, cPLA2 levels in brains of LPS-treated mice; experiment: Western blot of brains of LPS-treated mice (ex vivo); type: in vivo; conditions: 94, 95: 10 mg/kg i.p.; rivastigmine 1 mg/kg i.p.; vs LPS-treated control
Protocol: After the completion of cognitive assays carried out in the LPS model, the mice were sacrificed, and their brains were collected and stored for further analysis. In the ex vivo part of the study, murine brains were homogenized using T-PER mammalian protein extraction reagent (Thermo Fisher Scientific, Waltham, MA, USA) with protease (Merck Millipore, Burlington, MA, USA) and phosphatase inhibitors (Cayman Chemical, Ann Arbor, MI, USA). The total protein concentrations were determined using the Bradford reaction. Forty μg of the total proteins were solubilized in Laemmli buffer with 2% 2-mercaptoethanol and were subject to 10% SDS-polyacrylamide gel electrophoresis. The anticyclooxygenase 2 (COX-2, diluted 1:1000), antitoll-like receptor 4 (TLR4, diluted 1:1000), anticytosolic phospholipase A2 (cPLA2, 1:1000), and anti-inflammasome (NLPR3, diluted 1:500) were used (Thermo Fisher Scientific, Waltham, MA, USA). The endogenous control was β-actin (1:1000) (Thermo Fisher Scientific, Waltham, MA, USA). The secondary antibody was antirabbit IgG (HRP) diluted 1:2000 (Thermo Fisher Scientific, Waltham, MA, USA). Proteins were detected using the Clarity Western ECL Luminol Substrate (Bio-Rad, Hercules, CA, USA). Chemi Doc Camera with Image Lab 6.1 software (Bio-Rad) was used to quantify the integrated optical density of the bands. The results were normalized to the data obtained for β-actin after stripping the PVDF membrane using Restore Western Blot Stripping Buffer (Thermo Fisher Scientific, Waltham, MA, USA) and expressed as relative to the control. This thorough process ensures the validity and reliability of the results.

[5] = for Pe ± SEM: BBB-PAMPA, pH 7.4, n = 2 novel compounds, n = 3 reference drugs; for CNS (+/–): predicted BBB permeation from Pe
hBChE = hBChE (Homo sapiens, UniProt P06276); experiment: biochemical
Protocol: The inhibitory potencies of the compounds against the ChEs were determined using the method of Ellman. […] The final content of DMSO was always 1% [v/v]. […] The initial velocities in the presence (v i ) and absence (v 0) of the test compounds were calculated. The inhibitory potencies were expressed as the residual activities, according to RA = (v i – b)/(v 0 – b), where b is the blank value using phosphate buffer without ChEs. For IC50 determinations, at least seven different concentrations for each compound were used. The IC50 values were obtained by plotting the residual ChE activities against the applied inhibitor concentrations, with the experimental data fitted to a four-parameter logistic function (GraphPad Prism 10.0).

[6] = hBChE IC50 ± SEM, two independent experiments, each in triplicate
[7] = in vitro hBChE IC50, IC50 expressed as concentration in ng/mL

Chain of hBChE (P06276 29-602): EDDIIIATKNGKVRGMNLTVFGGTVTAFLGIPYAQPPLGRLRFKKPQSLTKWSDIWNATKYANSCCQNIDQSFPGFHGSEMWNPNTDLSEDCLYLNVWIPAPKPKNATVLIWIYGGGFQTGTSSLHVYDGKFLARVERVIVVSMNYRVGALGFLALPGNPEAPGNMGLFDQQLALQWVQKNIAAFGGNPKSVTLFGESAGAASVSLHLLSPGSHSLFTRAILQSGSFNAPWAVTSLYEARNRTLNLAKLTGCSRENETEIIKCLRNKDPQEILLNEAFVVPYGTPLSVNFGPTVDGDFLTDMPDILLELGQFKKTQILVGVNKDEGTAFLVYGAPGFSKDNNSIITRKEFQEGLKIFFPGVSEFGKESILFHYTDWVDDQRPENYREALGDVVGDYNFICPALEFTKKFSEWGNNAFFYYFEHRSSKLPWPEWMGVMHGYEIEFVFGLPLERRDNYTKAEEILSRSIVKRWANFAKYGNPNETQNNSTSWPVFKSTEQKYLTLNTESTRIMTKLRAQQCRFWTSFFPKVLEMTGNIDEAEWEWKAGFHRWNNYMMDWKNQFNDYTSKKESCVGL

Q: For CC(C)Cn1ncc2cc(Cc3ccc(F)cc3F)c(C(=O)NCCN(C)C)cc21 [Compound 94, 5-(2,4-Difluorobenzyl)-N-(2-(dimethylamino)ethyl)-1-isobutyl-1H-indazole-6-carboxamide], which RA @ 1000nM (ACVR1B) is on record?
A: 100%

Q: What about the RA @ 10000nM (ACVR1B) of the same molecule?
A: 100%

Q: And the RA @ 1000nM (AKT1)?
A: 100%

Q: What about the RA @ 10000nM (AKT1) of the same molecule?
A: 75%

Q: And the RA @ 1000nM (AURKB)?
A: 84%

Q: What about the RA @ 10000nM (AURKB) of the same molecule?
A: 68%

Q: What about the RA @ 1000nM (BRAF(V600E)) of the same molecule?
A: 100%

Q: And the RA @ 10000nM (BRAF(V600E))?
A: 100%

Q: And the RA @ 1000nM (CSNK1D)?
A: 86%

Q: And the RA @ 10000nM (CSNK1D)?
A: 79%

Q: What about the RA @ 1000nM (EGFR(L858R)) of the same molecule?
A: 100%

Q: What about the RA @ 10000nM (EGFR(L858R)) of the same molecule?
A: 66%

Q: What about the RA @ 1000nM (ERBB4) of the same molecule?
A: 85%

Q: And the RA @ 10000nM (ERBB4)?
A: 83%

Q: What about the RA @ 1000nM (ERK 2) of the same molecule?
A: 100%

Q: And the RA @ 10000nM (ERK 2)?
A: 98%

Q: What about the RA @ 1000nM (FGFR3) of the same molecule?
A: 100%

Q: What about the RA @ 10000nM (FGFR3) of the same molecule?
A: 100%

Q: What about the RA @ 1000nM (IKKα) of the same molecule?
A: 82%

Q: And the RA @ 10000nM (IKKα)?
A: 87%

Q: And the RA @ 1000nM [1]?
A: 98%

Q: What about the RA @ 10000nM [1] of the same molecule?
A: 100%

Q: What about the RA @ 1000nM (JNK2) of the same molecule?
A: 52%

Q: And the RA @ 10000nM (JNK2)?
A: 8.3%

Q: What about the RA @ 1000nM (JNK3) of the same molecule?
A: 55%

Q: And the RA @ 10000nM (JNK3)?
A: 6.8%

Q: And the RA @ 1000nM (MAP3K4)?
A: 49%

Q: And the RA @ 10000nM (MAP3K4)?
A: 100%

Q: And the RA @ 1000nM (MARK3)?
A: 100%

Q: And the RA @ 10000nM (MARK3)?
A: 100%

Q: What about the RA @ 1000nM (MEK1) of the same molecule?
A: 98%

Q: What about the RA @ 10000nM (MEK1) of the same molecule?
A: 74%

Q: What about the RA @ 1000nM (p38δ) of the same molecule?
A: 97%

Q: What about the RA @ 10000nM (p38δ) of the same molecule?
A: 100%

Q: What about the RA @ 1000nM (PDPK1) of the same molecule?
A: 88%

Q: And the RA @ 10000nM (PDPK1)?
A: 74%

Q: What about the RA @ 1000nM (PIK3CA) of the same molecule?
A: 77%

Q: What about the RA @ 10000nM (PIK3CA) of the same molecule?
A: 95%

Q: And the RA @ 1000nM (PIM1)?
A: 95%

Q: And the RA @ 10000nM (PIM1)?
A: 100%

Q: And the RA @ 1000nM (PKACα)?
A: 100%

Q: What about the RA @ 10000nM (PKACα) of the same molecule?
A: 96%

Q: And the RA @ 1000nM (PRKCE)?
A: 80%

Q: What about the RA @ 10000nM (PRKCE) of the same molecule?
A: 80%

Q: And the RA @ 1000nM [2]?
A: 86%

Q: What about the RA @ 10000nM [2] of the same molecule?
A: 65%

Q: And the RA @ 1000nM (SNARK)?
A: 100%

Q: What about the RA @ 10000nM (SNARK) of the same molecule?
A: 93%

Q: And the RA @ 1000nM (ULK2)?
A: 71%

Q: And the RA @ 10000nM (ULK2)?
A: 88%

Q: What about the “production of IL-12” value (PBMCs) of the same molecule?
A: increased, albeit at a low level

Q: And the “production of pro-inflammatory cytokines IL-8, IL-1β, IL-6, IL-10, and TNF-α” value (PBMCs)?
A: significantly inhibited

Q: And the “efficacy in NOR task” value [3]?
A: statistically ineffective

Q: And the “preference for the novel object (NOR task)” value [3]?
A: statistically significant preference for the novel object

Q: What about the “brain cPLA2 expression” value [4] of the same molecule?
A: no difference

Q: And the “brain levels of TLR4, COX-2, and NLRP3” value [4]?
A: significantly lower levels

Q: And the “Pe ± SEM” value [5]?
A: 10.4 ± 0.01 ×10–6 cm/s

Q: What about the “CNS (+/–)” value [5] of the same molecule?
A: CNS+ (CNS+ indicates high predicted BBB permeation [Pe (×10–6 cm/s) > 4.0])

Q: And the IC50 (hBChE; [6])?
A: 652 ± 112 nM

Q: And the IC50 (hBChE; [7])?
A: 651 nM

Q: Which RA @ 1000nM (ACVR1B) does the source give for CN(C)CCNC(=O)c1cc2c(cnn2CC2CCCCC2)cc1Cc1ccc(F)cc1F [Compound 95, 1-(Cyclohexylmethyl)-5-(2,4-difluorobenzyl)-N-(2-(dimethylamino)ethyl)-1H-indazole-6-carboxamide] here?
A: 100%

Q: And the RA @ 10000nM (ACVR1B)?
A: 100%

Q: And the RA @ 1000nM (AKT1)?
A: 100%

Q: And the RA @ 10000nM (AKT1)?
A: 100%

Q: What about the RA @ 1000nM (AURKB) of the same molecule?
A: 99%

Q: What about the RA @ 10000nM (AURKB) of the same molecule?
A: 71%

Q: And the RA @ 1000nM (BRAF(V600E))?
A: 98%

Q: What about the RA @ 10000nM (BRAF(V600E)) of the same molecule?
A: 100%

Q: What about the RA @ 1000nM (CSNK1D) of the same molecule?
A: 93%

Q: And the RA @ 10000nM (CSNK1D)?
A: 84%

Q: What about the RA @ 1000nM (EGFR(L858R)) of the same molecule?
A: 100%

Q: And the RA @ 10000nM (EGFR(L858R))?
A: 100%

Q: And the RA @ 1000nM (ERBB4)?
A: 93%

Q: What about the RA @ 10000nM (ERBB4) of the same molecule?
A: 81%

Q: What about the RA @ 1000nM (ERK 2) of the same molecule?
A: 100%

Q: And the RA @ 10000nM (ERK 2)?
A: 100%

Q: And the RA @ 1000nM (FGFR3)?
A: 100%

Q: And the RA @ 10000nM (FGFR3)?
A: 92%

Q: What about the RA @ 1000nM (IKKα) of the same molecule?
A: 92%

Q: And the RA @ 10000nM (IKKα)?
A: 75%

Q: And the RA @ 1000nM [1]?
A: 100%

Q: What about the RA @ 10000nM [1] of the same molecule?
A: 100%

Q: And the RA @ 1000nM (JNK2)?
A: 44%

Q: What about the RA @ 10000nM (JNK2) of the same molecule?
A: 3.8%

Q: What about the RA @ 1000nM (JNK3) of the same molecule?
A: 48%

Q: And the RA @ 10000nM (JNK3)?
A: 3.7%

Q: What about the RA @ 1000nM (MAP3K4) of the same molecule?
A: 100%

Q: And the RA @ 10000nM (MAP3K4)?
A: 60%

Q: And the RA @ 1000nM (MARK3)?
A: 79%

Q: What about the RA @ 10000nM (MARK3) of the same molecule?
A: 86%

Q: And the RA @ 1000nM (MEK1)?
A: 98%

Q: What about the RA @ 10000nM (MEK1) of the same molecule?
A: 100%

Q: What about the RA @ 1000nM (p38δ) of the same molecule?
A: 100%

Q: What about the RA @ 10000nM (p38δ) of the same molecule?
A: 100%

Q: What about the RA @ 1000nM (PDPK1) of the same molecule?
A: 100%

Q: And the RA @ 10000nM (PDPK1)?
A: 87%

Q: What about the RA @ 1000nM (PIK3CA) of the same molecule?
A: 100%

Q: What about the RA @ 10000nM (PIK3CA) of the same molecule?
A: 100%

Q: What about the RA @ 1000nM (PIM1) of the same molecule?
A: 100%

Q: And the RA @ 10000nM (PIM1)?
A: 94%

Q: And the RA @ 1000nM (PKACα)?
A: 100%

Q: And the RA @ 10000nM (PKACα)?
A: 94%

Q: What about the RA @ 1000nM (PRKCE) of the same molecule?
A: 79%

Q: What about the RA @ 10000nM (PRKCE) of the same molecule?
A: 76%

Q: What about the RA @ 1000nM [2] of the same molecule?
A: 94%

Q: What about the RA @ 10000nM [2] of the same molecule?
A: 94%

Q: What about the RA @ 1000nM (SNARK) of the same molecule?
A: 93%

Q: And the RA @ 10000nM (SNARK)?
A: 92%

Q: And the RA @ 1000nM (ULK2)?
A: 77%

Q: And the RA @ 10000nM (ULK2)?
A: 75%

Q: What about the “production of IL-12” value (PBMCs) of the same molecule?
A: increased, albeit at a low level

Q: And the “production of pro-inflammatory cytokines IL-8, IL-1β, IL-6, IL-10, and TNF-α” value (PBMCs)?
A: significantly inhibited

Q: And the “efficacy in NOR task” value [3]?
A: statistically ineffective

Q: And the “preference for the novel object (NOR task)” value [3]?
A: statistically significant preference for the novel object

Q: And the “brain cPLA2 expression” value [4]?
A: no difference

Q: What about the “brain levels of TLR4, COX-2, and NLRP3” value [4] of the same molecule?
A: significantly lower levels

Q: And the “Pe ± SEM” value [5]?
A: 13.2 ± 1.1 ×10–6 cm/s

Q: And the “CNS (+/–)” value [5]?
A: CNS+ (CNS+ indicates high predicted BBB permeation [Pe (×10–6 cm/s) > 4.0])

Q: And the IC50 (hBChE; [6])?
A: 772 ± 57 nM

Q: What about the IC50 (hBChE; [7]) of the same molecule?
A: 770 nM
